From patent publication US4391828A, “Dibutylorthobenzylmethoxybenzenes and dibutylorthocinnamylmethoxybenzenes as mosquito larvae growth inhibitors” (The United States of America as represented by the …, priority 1982, dated 1983)
In brackets after ≈: the same amount, converted by molar mass.

What was measured:
Test in all cases: Growth-inhibition test on mosquito larvae
[1] = tested on: Anopheles quadrimaculatus; assay type: in vivo, Anopheles quadrimaculatus (malaria mosquito); details: late third- and early fourth-stage larvae, 7 days, corrected by Abbott's formula; for LC50: 168 h, read-out: LC-50 (concentration that would prevent and/or retard the growth in 50% of the treated larvae)
Experimental: (§1) Twenty-five late third-and early fourth-stage mosquito larve were placed in a 500-ml glass jar (9X8.5 cm diam) containing 100 ml of well water, 0.05g ground hog supplement for larval food, and a known amount of the test compound in not more than 1.0ml acetone. The jars were covered with cloth netting and held in constant temperature incubators at 26.7°-28.9° C. and 65-75% relative humidity; a low level of illumination (ca. 0.5 foot candles inside the incubators) was maintained during nonworking hours. After seven days, the jars were examined for the number of dead pupae, the number of adults that were dead or unable to complete eclosion and the number of exuvia. […] Tests were replicated for at least one concentration and a control was set with each test series. Several concentrations of each compound were tested so that a dose-response relationship could be established.
(§2) The effectiveness of the compound in inhibiting growth was determined by adding the numbers of dead larvae and pupae and the numbers of adults that were dead, unable to complete eclosion, and malformed. This sum was corrected by Abbott's formula (to adjust for the number of larvae or pupae which would die naturally). The results are expressed as LC 50 or LC 90, i.e., the concentration of growth inhibitor in ppm that would prevent and/or retard the growth in 50% or 90%, respectively, of the treated larvae.

Aedes taeniorhynchos = assay type: in vivo; details: late third- and early fourth-stage larvae, 7 days, corrected by Abbott's formula
Experimental: as §1, §2

Anopheles albimanus = assay type: in vivo; details: late third- and early fourth-stage larvae, 7 days, corrected by Abbott's formula
Experimental: as §1, §2

Aedes aegypti = assay type: in vivo, Aedes aegypti (yellow fever mosquito); details: late third- and early fourth-stage larvae, 7 days, corrected by Abbott's formula
Experimental: as §1, §2

CCOc1c(CC=Cc2ccccc2)cc(C(C)(C)C)cc1C(C)(C)C [C-II]
LC50 [1]: 0.189 µg/mL (≈ 0.539 µM) | LC-90 (concentration that would prevent and/or retard the growth in 90% of the treated larvae) [1]: 1.042 ppm

CCOc1c(C(C)c2ccc(OC)cc2)cc(C(C)(C)C)cc1C(C)(C)C (stereo not drawn) [B-V]
LC-90 (concentration that would prevent and/or retard the growth in 90% of the treated larvae) [1]: > 1.0 ppm

CCOc1c(Cc2ccc(OC)cc2)cc(C(C)(C)C)cc1C(C)(C)C [B-II]
LC50 [1]: 0.074 µg/mL (≈ 0.209 µM) | LC-90 (concentration that would prevent and/or retard the growth in 90% of the treated larvae) [1]: 0.285 ppm

CCOc1c(C(C)c2ccccc2)cc(C(C)(C)C)cc1C(C)(C)C (stereo not drawn) [A-II]
LC-90 (concentration that would prevent and/or retard the growth in 90% of the treated larvae) [1]: > 1.0 ppm

COc1c(Cc2ccccc2)cc(C(C)(C)C)cc1C(C)(C)C [A, 2,4-Bis(1,1-dimethylethyl)-6-(phenylmethyl)methoxybenzene]
LC50 [1]: 0.065 µg/mL (≈ 0.209 µM) | LC-90 (concentration that would prevent and/or retard the growth in 90% of the treated larvae) [1]: 0.092 ppm | LC-50 (Aedes taeniorhynchos): 0.026 ppm | LC-90 (Aedes taeniorhynchos): 0.164 ppm | LC-50 (Anopheles albimanus): 0.014 ppm | LC-90 (Anopheles albimanus): 0.025 ppm

COc1ccc(C(C)c2cc(C(C)(C)C)cc(C(C)(C)C)c2OC)cc1 (stereo not drawn) [B-IV]
LC50 [1]: 0.242 µg/mL (≈ 0.683 µM) | LC-90 (concentration that would prevent and/or retard the growth in 90% of the treated larvae) [1]: 0.556 ppm

COc1ccc(Cc2cc(C(C)(C)C)cc(C(C)(C)C)c2O)cc1 [Compound B-I, 2,4-bis(1,1-dimethylethyl)-6-[(4-methoxyphenyl)methyl]phenol]
LC50 [1]: 0.12 µg/mL (≈ 0.368 µM) | LC-90 (concentration that would prevent and/or retard the growth in 90% of the treated larvae) [1]: 0.225 ppm

COc1c(CC=Cc2ccccc2)cc(C(C)(C)C)cc1C(C)(C)C [C, 2,4-Bis(1,1-dimethylethyl)-6-(3-phenyl-2-propenyl)methoxybenzene]
LC50 [1]: 0.026 µg/mL (≈ 0.0773 µM) | LC-90 (concentration that would prevent and/or retard the growth in 90% of the treated larvae) [1]: 0.089 ppm

COc1c(C(C)c2ccccc2)cc(C(C)(C)C)cc1C(C)(C)C (stereo not drawn) [A-III]
LC-90 (concentration that would prevent and/or retard the growth in 90% of the treated larvae) [1]: > 1.0 ppm

CC(C)(C)c1cc(Cc2ccccc2)c(O)c(C(C)(C)C)c1 [A-I]
LC50 [1]: 0.2 µg/mL (≈ 0.675 µM) | LC-90 (concentration that would prevent and/or retard the growth in 90% of the treated larvae) [1]: 1.37 ppm

CC(C)(C)c1cc(CC=Cc2ccccc2)c(O)c(C(C)(C)C)c1 [C-I]
LC50 [1]: 0.152 µg/mL (≈ 0.471 µM) | LC-90 (concentration that would prevent and/or retard the growth in 90% of the treated larvae) [1]: 0.399 ppm

COc1ccc(Cc2cc(C(C)(C)C)cc(C(C)(C)C)c2OC)cc1 [Compound B, 2,4-Bis (1,1-dimethylethyl)-6-[(4-methoxyphenyl)methyl]-methoxybenzene]
LC-50 (Aedes aegypti): 0.005 ppm | LC-90 (Aedes aegypti): 0.099 ppm | LC-90 (concentration that would prevent and/or retard the growth in 90% of the treated larvae) [1]: 0.032 ppm | LC-50 (Aedes taeniorhynchos): 0.009 ppm | LC-90 (Aedes taeniorhynchos): 0.023 ppm | LC-50 (Anopheles albimanus): .005 ppm | LC-90 (Anopheles albimanus): 0.009 ppm
